# From EP0392326B1, “Dichloro-substituted imidazole derivatives as antifungal agents” (SOCIEDAD ESPANOLA DE ESPECIALIDADES FARMACO-TERAPEUTICAS, …, priority 1989, dated 1990)
# Columns and labels:
# [1] = test system: Candida tropicalis CECT 1440; experiment: In vitro activity against Candida tropicalis CECT 1440 (MIC and RIF); assay type: cell-based; details: for RIF: Relative Inhibition Factor, Candida tropicalis CECT 1440; for activity compared with Clotrimazole: applicant's own tests, illustrated by the table of Example 3
# Description: In vitro activity against Candida tropicalis CECT 1440.
# This pharmacological test allows a comparison of the activities of the two products of the present invention (WAS 2160 and WAS 2169) with the activities of the structurally closest described product (SQ 80896), the structurally closest commercial product (Clotrimazole) and the analogue product without the seven-membered ring (WAS 2162). MIC (Minimum Inhibitory Concentration, in […]) and RIF (Relative Inhibition Factor) parameters were determined in a standard way, obtaining the results of the table (WAS 2162 is the nitric acid salt of 1-[(2,4-dichlorophenyl)phenylmethyl]-1H-imidazole, prepared at our laboratory).
# Candida albicans = details: data of US 4.420.474 Table I; cited from earlier work
# C. albicans = experiment: In vitro MIC, progressive double dilutions in liquid medium; assay type: cell-based; design: unit not given here; details: Sabouraud broth with gentamycin
# Method: (§1) In vitro ativity against 116 strains of yeasts and 45 strains of dermatophytes
# (§2) MIC-s were determined by the method of progressive double dilutions in a liquid medium, using sterile microplates. The culture medium used was the Sabouraud broth with gentamycin (100 mg/1000 mL).
# C. parapsilosis = experiment: as above; assay type: cell-based; design: unit not given here; details: Sabouraud broth with gentamycin
# Method: as §1, §2
# C. tropicalis = experiment: as above; assay type: cell-based; design: unit not given here; details: Sabouraud broth with gentamycin
# Method: as §1, §2
# M. gypseum = experiment: as above; assay type: cell-based; design: unit not given here; details: Sabouraud broth with gentamycin
# Method: as §1, §2
# C. Krusei = experiment: as above; assay type: cell-based; details: Sabouraud broth with gentamycin
# Method: as §1, §2
# Epidermophyton floccosum = experiment: as above; assay type: cell-based; details: Sabouraud broth with gentamycin
# Method: as §1, §2
# Microsporum canis = experiment: as above; assay type: cell-based; details: Sabouraud broth with gentamycin
# Method: as §1, §2
# T. tonsurans = experiment: as above; assay type: cell-based; details: Sabouraud broth with gentamycin
# Method: as §1, §2
# Torulopsis glabrata = experiment: as above; assay type: cell-based; details: Sabouraud broth with gentamycin
# Method: as §1, §2
# Trich. rubrum = experiment: as above; assay type: cell-based; details: Sabouraud broth with gentamycin
# Method: as §1, §2
# Trichoph. mentagrophytes = experiment: as above; assay type: cell-based; details: Sabouraud broth with gentamycin
# Method: as §1, §2
# [2] = test system: Trichophyton mentagrophytes; experiment: In vivo protection against experimentally-induced dermatophytosis; details: guinea pig, double-blind
# Method: In vivo tests of protection against experimentally-induced dermatophytosis in the guinea pig, caused by Trichophyton mentagrophytes.
# Two double-blind comparative tests were carried out, with the following results: […]
# [3] = test system: Malassezia furfur (Pytiosporum); experiment: In vitro test against 30 strains of Malassezia furfur; assay type: cell-based; details: for % of strains with PIC lower than 40 »g/mL: PIC = Partial Inhibitory Concentration: growth inhibition greater than 50% in relation to controls
# Method: In vitro test against 30 strains of Malassezia furfur (Pytiosporum)
# A double-blind comparative test was carried out with WAS 2160, Clotrimazole and Bifonazole, with the results of the table. (PIC = Partial Inhibitory Concentration: growth inhibition greater than 50% in relation to controls).
# candidiosis = experiment: In vivo antifungal activity against candidiosis; details: guinea pig candidiosis, double-blind
# Method: In vivo test of antifungal activity against candidiosis in guinea pig
# A double-blind comparative test was carried out with WAS 2160 and Clotrimazole, with the following results: […]
# [4] = Tolerance test in rabbits (eye, skin, vagina); assay type: in vivo; details: skin and vagina
# Description: Tolerance test of WAS 2160 in rabbits
Compound,RIF [1],activity compared with Clotrimazole [1],MIC (C. albicans),MIC (C. parapsilosis),MIC (C. tropicalis),MIC (M. gypseum),MIC (C. Krusei),MIC (Epidermophyton floccosum),MIC (Microsporum canis),MIC (T. tonsurans),MIC (Torulopsis glabrata),MIC (Trich. rubrum),MIC (Trichoph. mentagrophytes),% of negative cultures after treatment ([2]; test I),% of negative cultures after treatment ([2]; test II),% of strains with MIC lower than 40 »g/mL [3] [%],% of strains with PIC lower than 40 »g/mL [3] [%],% of animals with total clin. healing (candidiosis) [%],% of negative cultures after treatment (candidiosis) [%],also measured
"Clc1ccc2c(c1)C(n1ccnc1)c1ccccc1CC2 (centres unmarked) [SQ 80896, 1-(3-chloro-10,11-dihydro-5H-dibenzo[a,d]dicyclohepten-5-yl)-1H-imidazole]",83.96,considerably less active than Clotrimazole,–,–,–,–,–,–,–,–,–,–,–,–,–,–,–,–,–,activity compared with Clotrimazole (MIC parameters) (Candida albicans): considerably less active than Clotrimazole
c1ccc(-c2ccc(C(c3ccccc3)n3ccnc3)cc2)cc1 (centres unmarked) [Bifonazole],–,–,"12,10","58,97","72,67","6,25","50,50","0,02","3,12","1,20","14,88","1,19","1,48",39 % (test I),0 % (test II),83,50,–,–,–
"Clc1ccc(C(c2ccccc2)n2ccnc2)c(Cl)c1 (centres unmarked) [WAS 2162, 1-[(2,4-dichlorophenyl)phenylmethyl]-1H-imidazole]",94.47,considerably less active than Clotrimazole,–,–,–,–,–,–,–,–,–,–,–,–,–,–,–,–,–,–
"Clc1cc(Cl)c2c(c1)CCc1ccccc1C2n1ccnc1.O=[N+]([O-])O (racemic) [WAS 2160, 1-(2,4-Dichloro-10,11-dihydro-5H-dibenzo[a,d]cyclohepten-5-yl)-1H-imidazole nitrate]",39.31,–,"2,25","2,06","3,44","1,05","3,17","0,32","0,39","0,19","1,25","0,54","0,17",50%,–,40,60,60,100,"Tolerance [4]: innocuous and totally tolerated by the eye, the skin and the vagina"
Clc1ccccc1C(c1ccccc1)(c1ccccc1)n1ccnc1 [Clotrimazole],43.05,–,"2,43","2,36","3,51","0,97","6,18","0,09","2,69","0,90","6,29","0,31","0,23",–,–,33,56,30,100,–
"Clc1cc(Cl)c2c(c1)C=Cc1ccccc1C2n1ccnc1.O=[N+]([O-])O (racemic) [WAS 2169, 1-(2,4-dichloro-5H-dibenzo[a,d]cyclohepten-5-yl)-1H-imidazole nitrate]",54.94,–,"1,98","1,08","7,58","0,08","5,61",–,"0,06",–,"6,33","0,30","0,17",–,"81,8%",–,–,–,–,–
